The values that follow come from US12214036B2, “Combination therapy comprising AXL/MER and PD-1/PD-L1 inhibitors” (Incyte Corporation, priority 2020, dated 2025).

For the assay, the target named is T1, MER (Homo sapiens, UniProt Q12866).
T1 sequence (Q12866 21-999): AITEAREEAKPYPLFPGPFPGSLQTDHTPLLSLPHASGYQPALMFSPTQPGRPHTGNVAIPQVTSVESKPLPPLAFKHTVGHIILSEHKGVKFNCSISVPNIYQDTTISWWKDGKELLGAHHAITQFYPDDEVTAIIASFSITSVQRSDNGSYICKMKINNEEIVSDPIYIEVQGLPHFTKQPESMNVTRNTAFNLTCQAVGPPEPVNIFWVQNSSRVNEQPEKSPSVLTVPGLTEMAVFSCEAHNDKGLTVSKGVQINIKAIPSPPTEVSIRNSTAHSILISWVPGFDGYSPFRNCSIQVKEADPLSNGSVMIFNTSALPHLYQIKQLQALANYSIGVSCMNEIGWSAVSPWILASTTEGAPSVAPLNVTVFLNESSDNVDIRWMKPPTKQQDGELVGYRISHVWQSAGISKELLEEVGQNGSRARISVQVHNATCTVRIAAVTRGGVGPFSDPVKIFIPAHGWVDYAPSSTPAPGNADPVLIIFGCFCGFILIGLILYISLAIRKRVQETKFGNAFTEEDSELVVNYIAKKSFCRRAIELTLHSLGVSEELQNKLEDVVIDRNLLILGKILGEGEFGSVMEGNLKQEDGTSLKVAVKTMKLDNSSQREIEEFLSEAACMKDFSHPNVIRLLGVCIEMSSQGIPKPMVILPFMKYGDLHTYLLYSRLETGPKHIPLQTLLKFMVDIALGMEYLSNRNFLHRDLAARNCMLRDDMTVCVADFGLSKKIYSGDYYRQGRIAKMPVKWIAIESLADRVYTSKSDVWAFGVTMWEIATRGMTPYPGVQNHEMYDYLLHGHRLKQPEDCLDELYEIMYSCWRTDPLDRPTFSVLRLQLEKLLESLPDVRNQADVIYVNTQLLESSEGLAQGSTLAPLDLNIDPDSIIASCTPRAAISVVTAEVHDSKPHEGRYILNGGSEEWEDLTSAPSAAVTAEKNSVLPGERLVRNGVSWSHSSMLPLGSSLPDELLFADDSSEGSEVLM
As to the kind of experiment: Phospho-MER inhibition assay in G361 cells (ELISA). Type of assay: cell-based. Details: G361 cells, a melanoma cell line expressing high level of MER kinase; endogenous in cells; host or cells: G361. The settings on record: G361 melanoma cells, N=2 (FIG. 3); read-out: IC50, MER phosphorylation induced by MAB8912. Here is the method: The potency of Compound 1 in blocking MER auto-phosphorylation was evaluated in G361 cells, a melanoma cell line expressing high level of MER kinase.
Newly thawed G361 cells were allowed to recover for three passages before use, and only cells within 20 passages after thawing were used in the assay. Cells were kept under nonconfluent conditions and used in log-phase growth. Two mL of 1×10^6 cells/mL (2×10^6 cells/well) G361 cells were added to a six-well tissue-culture plates (Corning Incorporated; #3961) for 2 days. At the time of the assay, 1 mL of medium was added to each well. […] The optical density of the plate was measured using a Molecular Devices SpectraMax Plus microplate reader (Molecular Devices, San Jose, Calif.) at 450 nm with wavelength correction at 540 nm. Absorbance of the standards was plotted versus the concentration to generate a standard curve using four-parameter algorithm curve fitting software (SOFTmax PRO application, Molecular Devices). pMER concentrations for unknown samples were determined by extrapolation from the standard curve. IC50 values were calculated by GraphPad Prism 7.0 using a nonlinear regression sigmoidal dose-response curve with variable slope.
For orientation: An ELISA detects its analyte on a solid surface through an enzyme-linked reagent.

For `CC(C)C(=O)N1CCC(c2cc(-c3ccc(NC(=O)c4cn(C(C)C)c(=O)n(-c5ccccn5)c4=O)cc3)c3c(N)ncnn23)CC1` [Compound 1, N-(4-(4-Amino-7-(1-isobutyrylpiperidin-4-yl)pyrrolo[1,2-f][1,2,4]triazin-5-yl)phenyl)-1-isopropyl-2,4-dioxo-3-(pyridin-2-yl)-1,2,3,4-tetrahydropyrimidine-5-carboxamide], the IC50 (usually the midpoint of a concentration-inhibition curve) amounted to 8.3 ± 3.1 nM.
